From article PMC3660563, “High-Throughput Screening for GPR119 Modulators Identifies a Novel Compound with Anti-Diabetic Efficacy in db/db Mice” (PLoS ONE, 2013)
Values belong to the compound of their own block, whether it stands above or below them.

Tests used:
[1] = target: T1, human GPR119 (Homo sapiens, UniProt Q8TDV5); assay: Reporter gene assay (CRE-luciferase) in HEK293-hGPR119 cells; assay type: cell-based; details: for allosteric modulation of OEA potency: compound added to OEA concentration response
T1 construct: expressed in transfected cells
T1 sequence (Q8TDV5 1-335): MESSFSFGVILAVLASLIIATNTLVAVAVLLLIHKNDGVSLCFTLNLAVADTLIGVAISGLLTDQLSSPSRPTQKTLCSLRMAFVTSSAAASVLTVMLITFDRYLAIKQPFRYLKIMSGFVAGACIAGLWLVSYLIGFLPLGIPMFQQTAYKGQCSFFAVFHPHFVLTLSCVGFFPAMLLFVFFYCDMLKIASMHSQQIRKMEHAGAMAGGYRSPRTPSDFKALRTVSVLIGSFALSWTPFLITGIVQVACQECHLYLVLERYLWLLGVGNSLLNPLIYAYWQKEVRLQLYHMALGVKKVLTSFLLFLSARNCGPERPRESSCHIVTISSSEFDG
Description: (§1) HEK293 cells stably transfected with a human GPR119 vector and a cAMP response element-driven luciferase reporter plasmid (HEK293-hGPR119 cells) and HEK293 cells transfected only with a cAMP response element-driven luciferase reporter plasmid (control HEK293 cells) were cultured in Dulbecco’s modified Eagle medium (DMEM) (Invitrogen, Carlsbad, CA, USA) supplemented with 10% fetal bovine serum (FBS), 4.5 g/l glucose, 100 units/ml penicillin and 100 µg/ml streptomycin at 37°C in 5% CO2. MIN6 cells were maintained in DMEM containing 15% FBS, 4.5 g/l glucose, 100 units/ml penicillin and 100 µg/ml streptomycin at 37°C in 5% CO2. GLUTag cells were maintained in DMEM containing 10% FBS, 1 g/l glucose, 100 units/ml penicillin and 100 µg/ml streptomycin at 37°C in 5% CO2.
(§2) HEK293-hGPR119 cells or control HEK293 cells were seeded onto 384-well plates with a density of 16,000 cells per well. At the time of assaying, AR-231453 or test compounds dissolved in DMSO were added. After 42 h of incubation at 37°C and 5% CO2 in a cell culture incubator, cells were lysed and quantified for luciferase activity using the Steady-Glo luciferase assay system (Promega, Madison, WI, USA) according to manufacturer’s protocol. For allosteric activity studies, test compounds were 5-fold serially diluted and added to AR-231453 or OEA concentration response reaction. Luciferase signals were determined with EnVision (PerkinElmer, Boston, MA, USA).

[2] = target: T1, human GPR119; assay: cAMP accumulation assay (HTRF) in HEK293-hGPR119 cells; assay type: cell-based
Description: as §1
cAMP accumulation was measured using HTRF-cAMP dynamic kit (Cisbio International, Gif sur Yvette Cedex, France) according to manufacturer's instructions. Briefly, HEK293-hGPR119 cells were suspended in assay buffer (DMEM, 1 mM 3-isobutyl-1-methylxanthine) and transferred to 384-well microplates (Greiner Bio-One, Frickenhausen, Germany) at a density of 16,000 cells/well. Plates were incubated for 30 min at 37°C before adding test compounds. After treatment for 30 min at 37°C, the reactions were stopped by addition of lysis buffer containing HTRF reagents. Plates were then incubated for 60 min at room temperature, and time-resolved FRET signals were measured after excitation at 320 nm. Both the emission signal from the europium cryptate-labeled anti-cAMP antibody (620 nm) and the FRET signal resulting from the labeled cAMP-d2 (665 nm) were detected by EnVision (PerkinElmer).

[3] = system: db/db mice; design: method as in the literature (reference number not given); details: ref the literature (reference number not given); cited from earlier work
[4] = system: db/db mice; assay: Chronic oral treatment of diabetic db/db mice; assay type: in vivo; details: for inhibition of glycemic excursion, oral glucose tolerance test, vs vehicle: glucose 3 g/kg; for food intake and body weight: 6-week once-daily oral treatment
Description: Animal experimentation was conducted in accordance with the regulations adopted by the Animal Care and Use Committee, Shanghai Institute of Materia Medica, Chinese Academy of Sciences (approval number: SIMM-2012-07-WMW-04). Male C57BL/KsJ db/db mice (Model Animal Research Center of Nanjing University, Nanjing, China) were housed in a temperature-controlled room (22±2°C), with a light/dark cycle of 12 h. At 6 weeks of age, mice were randomly assigned to chronic treatments. The experimental groups and respective doses of compounds were as follows: (1) 0.5% w/v sodium carboxyl methyl cellulose (CMC), (2) 10 mg/kg AR-231453, (3) 1 mg/kg sitagliptin (Beijing Huikang Boyuan Chemical Technology Co., Ltd., Beijing, China), (4) 10 mg/kg AR-231453 plus 1 mg/kg sitagliptin, (5) 100 mg/kg MW1219, and (6) 100 mg/kg MW1219 plus 1 mg/kg sitagliptin. Each regimen was administered once daily by oral gavaging for 6 weeks. Body weight and food intake were recorded every other day and fasting glucose levels measured every week. Oral glucose tolerance test was performed in overnight-fasting mice every other week. After six weeks of treatment, HbA1c were quantified, plasma insulin and GLP-1 contents were measured using respective ELISA kit. For oral glucose tolerance test, overnight fasting mice (n = 6/treatment) were given compounds orally at desired doses and after 30 min, an oral glucose bonus (3 g/kg) was delivered. Plasma glucose levels were determined at desired time points over a 2-h period using blood collected from the tail vein. For circulating GLP-1 analysis, compounds were administered orally to fasting animals followed by an oral glucose bolus (3 g/kg) 30 min later. Blood was drawn 2 min thereafter in Eppendorf tubes containing EDTA and a DPP-4 inhibitor. Plasma samples were obtained via centrifugation and assayed for active GLP-1 by the ELISA kit. Blood was collected again after 20 min to determine insulin levels.

[5] = system: GLUTag cells; assay: GLP-1 release assay in GLUTag cells; assay type: cell-based, murine; details: for GLP-1 release, low glucose medium: 2.8 mM glucose
Description: as §1
GLUTag cells were plated in 24-well plates on day 1 in low glucose DMEM supplemented with 10% FBS. Culture medium was replaced with DMEM (2.8 mM glucose) supplemented with 10% FBS 24 h before analysis of GLP-1 release. On the day of experiment, cells were washed twice with PBS and incubated with different compounds at desired concentrations in serum-free DMEM with 2.8 mM or 16.8 mM glucose for 1 h at 37°C and 5% CO2. The supernatants were collected by centrifugation for 3 min. GLP-1 in the supernatant was detected by a GLP-1 ELISA kit (Linco Research Laboratory).
(§3) MIN6 and GLUTag cells were cultured as described above. siRNA targeting murine GPR119 coding sequences (Forward: 5′-[…]-3′, Reverse: 5′-[…]-3′) was purchased from GenePharma company (Shanghai, China). Transfection was performed using siRNA and Lipofectamine 2000 (Invitrogen, Burlington, ON, Canada) as instructed by the manufacturer. After 36 h, knockdown efficiency of siRNA was quantified by real-time RT-PCR, and cells were used for secretion experiments.

[6] = system: control HEK293 cells; assay: Reporter gene assay in control HEK293 cells (no GPR119); assay type: cell-based
Description: as §1
as §2, with “For allosteric activity studies, test compounds were 5-fold serially diluted and added to AR-231453 or OEA concentration response reaction.” left out

[7] = system: MIN6 cells; assay: Insulin secretion assay in MIN6 cells; assay type: cell-based, mouse; details: for glucose-stimulated insulin secretion vs DMSO control: 16.8 mM glucose, 1 h, MW1219 at 15 µM and 50 µM (P<0.05), OEA at 10 µM (P<0.01)
Description: as §1
Insulin-secreting MIN6 cells were plated in 96-well plates (20,000 cells per well) for 2 days. On the day of experiment, culture medium was aspirated and cells were washed twice with KRBH buffer. Cells were then placed at 37°C for 30 min in KRBH containing 2.8 mM glucose. Test compounds were dissolved in either 2.8 or 16.8 mM glucose medium and added to cells for 1 h. The supernatants were collected by centrifugation at 800×g for insulin measurements. Insulin content in the supernatant was determined using an insulin ELISA kit from Linco Research Laboratory (Billerica, MA, USA).
as §3

[8] = system: control HEK293 cells; assay: cAMP accumulation assay in control HEK293 cells; assay type: cell-based
Description: as §1
cAMP accumulation was measured using HTRF-cAMP dynamic kit (Cisbio International, Gif sur Yvette Cedex, France) according to manufacturer's instructions. […] Plates were then incubated for 60 min at room temperature, and time-resolved FRET signals were measured after excitation at 320 nm. Both the emission signal from the europium cryptate-labeled anti-cAMP antibody (620 nm) and the FRET signal resulting from the labeled cAMP-d2 (665 nm) were detected by EnVision (PerkinElmer).

[9] = reporter gene and cAMP accumulation assays
[10] = HEK293-hGPR119 cells, 42 h incubation, read-out: EC50, luciferase expression
[11] = 100 mg/kg MW1219 plus 1 mg/kg sitagliptin, oral, once daily, 6 weeks
[12] = MW1219 100 mg/kg, sitagliptin 1 mg/kg
[13] = MW1219 0 μM (Table S3), read-out: EC50 of OEA
[14] = in presence of MW1219 1 μM, read-out: EC50 of OEA
[15] = in presence of MW1219 10 μM, read-out: EC50 of OEA

allosteric modulation of OEA potency [1, 9]: without affecting its potency
EC50 ([2]; OEA 0 μM (Table S2), read-out: EC50 of AR-231453): 0.00119 ± 0.00016 µM
Compound: CC(C)c1noc(C2CCN(c3ncnc(Nc4ccc(S(C)(=O)=O)cc4F)c3[N+](=O)[O-])CC2)n1 [AR-231453]
reduction of food intake [3]: only at very high doses
feeding and weight gain ([4]; AR-231453 in combination with sitagliptin): did not induce noticeable effects

efficacy relative to forskolin in the reporter gene assay ([1]; HEK293-hGPR119 cells): same level of efficacy as forskolin
EC50 [1, 10]: 0.96 ± 0.08 µM
allosteric modulation of OEA potency [1, 9]: not PAM for OEA
efficacy, cAMP accumulation, relative to forskolin ([2]; 50 µM MW1219, HEK293-hGPR119 cells): about 40%
Compound: CCOC(=O)c1ccc2oc3ccc(O)cc3c(=O)c2c1 [MW1219]
GLP-1 release after GPR119 siRNA knockdown ([5]; 20 µM and 50 µM MW1219, siRNA-treated GLUTag cells): indistinguishable from the medium control
GLP-1 release, low glucose medium ([5]; 1 h): Neither MW1219 nor OEA exhibited any effect
GLP-1 released to supernatant, high glucose ([5]; 16.8 mM glucose, 1 h): elevated dose-dependently
activity on luciferase expression in the absence of GPR119 [6]: did not show any activity
efficacy compared to forskolin ([6]; Figure 2C): 10%
insulin secretion after GPR119 siRNA knockdown ([7]; 15 µM MW1219, GPR119 siRNA-treated MIN6 cells): suppressed by siRNA
insulin release under low glucose ([7]; 2.8 mM glucose): no effect
glucose-stimulated insulin secretion vs DMSO control [7]: elevated insulin significantly
cAMP increase in control cells [8]: had no influence
circulating GLP-1 levels ([4]; 100 mg/kg MW1219, 6 weeks, 2 min after oral glucose 3 g/kg): not elevated
insulin response to a glucose bolus ([4]; 100 mg/kg MW1219, 6 weeks, 20 min after oral glucose 3 g/kg): notably more pronounced than that of controls
inhibition of glycemic excursion, oral glucose tolerance test, vs vehicle ([4]; 100 mg/kg MW1219, after 6 weeks, P<0.05): 8.6%
reduction of fasting blood glucose vs control ([4]; 100 mg/kg MW1219, oral, once daily, 6 weeks): 16%
HbA1c decrease compared with the control ([4]; 100 mg/kg MW1219, oral, once daily, 6 weeks, P<0.05): 0.67%
inhibition of glycemic excursion, oral glucose tolerance test, vs vehicle ([4]; 100 mg/kg MW1219 plus 1 mg/kg sitagliptin, after 6 weeks, P<0.001): 18.6%
HbA1c change [4, 11]: no difference
fasting blood glucose vs mice that received sitagliptin alone [4, 11]: significantly lower
reduction of fasting blood glucose vs control [4, 11]: 29%
food intake and body weight [4, 12]: neither food intake inhibition nor weight loss
fasting plasma glucose levels and glucose tolerance, pilot dose-response studies ([4]; MW1219 100 mg/kg, data not shown): improved both fasting plasma glucose levels and glucose tolerance

efficacy on GPR119 ([1]; 1 µM OEA, HTS luciferase assay): 15%
EC50 ([1]; AR-231453 0 nM (Table S1), read-out: EC50 of OEA): 2.81 ± 0.21 µM
EC50 [1, 10]: 2.78 ± 0.18 µM
EC50 [1, 13]: 2.89 ± 0.61 µM
EC50 [1, 14]: 3.09 ± 0.68 µM
EC50 [1, 15]: 2.56 ± 0.47 µM
allosteric modulation of AR-231453 potency ([1]; reporter gene and cAMP accumulation assays, compound added to AR-231453 concentration response): did not alter the potency of AR-231453
EC50 [2, 13]: 1.69 ± 0.17 µM
EC50 [2, 14]: 1.83 ± 0.24 µM
EC50 [2, 15]: 1.41 ± 0.11 µM
Compound: CCCCCCCC/C=C\CCCCCCCC(=O)NCCO [OEA, oleoylethanolamide]
GLP-1 release, low glucose medium ([5]; 1 h): Neither MW1219 nor OEA exhibited any effect
glucose-stimulated insulin secretion vs DMSO control [7]: elevated insulin significantly

Compound: N[C@@H](CC(=O)N1CCn2c(nnc2C(F)(F)F)C1)Cc1cc(F)c(F)cc1F [sitagliptin, reference compound]
HbA1c change ([4]; 1 mg/kg sitagliptin, oral, once daily, 6 weeks): no difference
food intake and body weight [4, 12]: failed to suppress food intake and decrease body weight
plasma GLP-1 levels ([4]; sitagliptin 1 mg/kg): raised plasma GLP-1 levels
